Data from US20210179600A1, “OXAZOLE AND THIAZOLE DERIVATIVES AS INHIBITORS OF ASK1” (Hepagene Therapeutics (HK) Limited, priority 2017, published 2021).

target: T1, Recombinant human ASK1 kinase (Homo sapiens, UniProt Q99683); experiment: ASK1 kinase HTRF assay (KinEASE-STK); assay type: biochemical; conditions: HTRF detection; 3 nM ASK1 kinase, 1 uM STK-substrate-biotin
T1 construct: purchased Invitrogen Inc
T1 sequence (Q99683 1-1374): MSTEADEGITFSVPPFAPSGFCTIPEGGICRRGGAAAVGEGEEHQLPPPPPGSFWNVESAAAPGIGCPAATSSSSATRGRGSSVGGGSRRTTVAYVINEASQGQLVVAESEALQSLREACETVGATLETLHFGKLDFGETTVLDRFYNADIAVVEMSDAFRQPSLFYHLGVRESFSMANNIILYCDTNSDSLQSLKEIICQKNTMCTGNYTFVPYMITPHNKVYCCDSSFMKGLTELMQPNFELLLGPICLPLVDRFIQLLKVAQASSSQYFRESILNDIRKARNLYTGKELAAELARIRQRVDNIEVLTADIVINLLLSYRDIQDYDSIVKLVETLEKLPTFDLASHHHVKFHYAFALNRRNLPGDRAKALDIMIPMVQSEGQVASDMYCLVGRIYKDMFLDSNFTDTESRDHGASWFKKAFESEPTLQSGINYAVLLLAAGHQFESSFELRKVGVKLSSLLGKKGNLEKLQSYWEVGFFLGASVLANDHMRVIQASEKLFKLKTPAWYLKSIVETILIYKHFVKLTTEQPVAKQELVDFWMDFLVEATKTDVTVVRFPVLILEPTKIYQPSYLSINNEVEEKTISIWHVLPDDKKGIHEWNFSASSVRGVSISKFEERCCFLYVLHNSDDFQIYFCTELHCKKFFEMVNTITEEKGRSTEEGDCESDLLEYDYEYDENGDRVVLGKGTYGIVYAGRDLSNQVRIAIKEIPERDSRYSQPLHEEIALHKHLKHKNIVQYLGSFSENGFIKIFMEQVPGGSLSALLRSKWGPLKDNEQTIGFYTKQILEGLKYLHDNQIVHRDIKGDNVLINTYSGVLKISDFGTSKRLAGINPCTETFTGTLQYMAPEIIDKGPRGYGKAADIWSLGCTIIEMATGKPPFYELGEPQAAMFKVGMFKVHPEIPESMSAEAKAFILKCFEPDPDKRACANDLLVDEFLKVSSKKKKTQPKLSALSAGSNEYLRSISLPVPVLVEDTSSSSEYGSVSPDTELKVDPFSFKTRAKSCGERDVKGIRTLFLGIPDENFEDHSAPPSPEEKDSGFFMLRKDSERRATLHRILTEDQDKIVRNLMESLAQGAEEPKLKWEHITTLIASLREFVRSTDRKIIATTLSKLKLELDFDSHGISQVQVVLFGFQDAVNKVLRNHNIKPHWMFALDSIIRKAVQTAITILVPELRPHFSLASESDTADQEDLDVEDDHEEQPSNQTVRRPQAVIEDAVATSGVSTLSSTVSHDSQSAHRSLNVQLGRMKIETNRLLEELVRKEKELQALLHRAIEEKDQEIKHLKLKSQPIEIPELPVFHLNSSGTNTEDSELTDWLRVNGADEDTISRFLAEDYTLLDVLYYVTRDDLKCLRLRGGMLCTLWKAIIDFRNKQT
Experimental: Reagents: Recombinant human ASK1 kinase was from Invitrogen Inc. HTRF KinEASE™-STK S3 kit was obtained from Cisbio (Bedford, Mass.). All other reagents were of the highest grade commercially available.
Assay: The assay measures the phosphorylation level of a biotinylatd peptide substrate by the ASK1 kinase using HTRF detection. ASK1 kinase assay is based on HTRF KinEASE™-STK manual from Cisbio. Test compound, 1 uM STK-substrate-biotin, 3 nM of ASK1 kinase are incubated with 1*Kinase buffer with 5 mM MgCl2 and 1 mM DTT. 250 nM Sa-XL 665(4*) and STK-antibody-Cryptate work solution are added to stop the reaction and phosphorylated peptide substrate is detected using Envision 2104 Multilabeled reader from PerkinElmer. The fluorescence is measured at 615 nm (Cryptate) and 665 nm (XL665) and a ratio of 665 nm/615 nm is calculated for each well. The resulting TR-FRET level (a ratio of 665 nm/615 nm) is proportional to the phosphorylation level of substrate.

Structure (SMILES) | EC50 [nM]
Cc1ccc(-c2cnc(-c3cccc(-c4nncn4C(C)C)n3)s2)c(F)c1 [Compound I-003, 5-(2-Fluoro-4-methylphenyl)-2-(6-(4-isopropyl-4H-1,2,4-triazol-3-yl)pyridin-2-yl)thiazole] | 50 to 500
CC(C)n1cnnc1-c1cccc(-c2ncc(-c3cccc(N4CCC(O)C4)c3)o2)n1 (centres unmarked) [Compound I-005, 1-[3-(2-[6-[4-(Propan-2-yl)-4H-1,2,4-triazol-3-yl]pyridin-2-yl]-1,3-oxazol-5-yl)phenyl]pyrrolidin-3-ol] | ≤ 50
CC(C)n1cnnc1-c1cccc(-c2ncc(-c3cccc(C(=O)Nc4ccccc4)c3)o2)n1 [Compound I-006, N-Phenyl-3-(2-[6-[4-(propan-2-yl)-4H-1,2,4-triazol-3-yl]pyridin-2-yl]-1,3-oxazol-5-yl)benzamide] | 50 to 500
CC(C)n1cnnc1-c1cccc(-c2ncc(-c3cccc(C(=O)O)c3)o2)n1 [Compound I-008, 3-(2-[6-[4-(Propan-2-yl)-4H-1,2,4-triazol-3-yl]pyridin-2-yl]-1,3-oxazol-5-yl)benzoic acid] | 50 to 500
CC(C)n1cnnc1-c1cccc(-c2ncc(-c3cccc(C(N)=O)c3)o2)n1 [Compound I-009, 3-(2-[6-[4-(Propan-2-yl)-4H-1,2,4-triazol-3-yl]pyridin-2-yl]-1,3-oxazol-5-yl)benzamide] | 50 to 500
CCN1CCN(c2cccc(-c3cnc(-c4cccc(-c5nncn5C(C)C)n4)o3)c2)CC1 [Compound I-010, 5-(3-(4-Ethylpiperazin-1-yl)phenyl)-2-(6-(4-isopropyl-4H-1,2,4-triazol-3-yl)pyridin-2-yl)oxazole] | ≤ 50
CC(=O)N1CCN(c2cccc(-c3cnc(-c4cccc(-c5nncn5C(C)C)n4)o3)c2)CC1 [Compound I-011, 1-(4-(3-(2-(6-(4-Isopropyl-4H-1,2,4-triazol-3-yl)pyridin-2-yl)oxazol-5-yl)phenyl)piperazin-1-yl)ethenone] | ≤ 50
CC(C)n1cnnc1-c1cccc(-c2ncc(-c3cccc(N4CCN(CCO)CC4)c3)o2)n1 [Compound I-012, 2-(4-(3-(2-(6-(4-Isopropyl-4H-1,2,4-triazol-3-yl)pyridin-2-yl)oxazol-5-yl)phenyl)piperazin-1-yl)ethanol] | ≤ 50
CC(C1CC1)n1cnnc1-c1cccc(-c2ncc(-c3ccccc3)o2)n1 (centres unmarked) [Compound I-015, 2-(6-(4-(1-Cyclopropylethyl)-4H-1,2,4-triazol-3-yl)pyridin-2-yl)-5-phenyloxazole] | ≤ 50
CC(C)n1cnnc1-c1cccc(-c2ncc(C3CCCCC3)o2)n1 [Compound I-016, 5-Cyclohexyl-2-(6-(4-isopropyl-4H-1,2,4-triazol-3-yl)pyridin-2-yl) oxazole] | 50 to 500
c1ccc(-c2cnc(-c3cccc(-c4nncn4C4CC4)n3)o2)cc1 [Compound I-017] | 50 to 500
CC(C)n1cnnc1-c1cccc(-c2ncc(-c3ccncc3)o2)n1 [Compound I-021] | 50 to 500
Cc1cccc(-c2cnc(-c3cccc(-c4nncn4C(C)C)n3)o2)c1 [Compound I-028] | 50 to 500
Cc1ccc(-c2cnc(-c3cccc(-c4nncn4C(C)C)n3)o2)cc1 [Compound I-029] | ≤ 50
CC(C)c1cccc(-c2cnc(-c3cccc(-c4nncn4C(C)C)n3)o2)c1 [Compound I-034] | 50 to 500
CC(C)c1ccc(-c2cnc(-c3cccc(-c4nncn4C(C)C)n3)o2)cc1 [Compound I-035] | 50 to 500
CCc1ccc(-c2cnc(-c3cccc(-c4nncn4C(C)C)n3)o2)cc1 [Compound I-036] | 50 to 500
CCc1cccc(-c2cnc(-c3cccc(-c4nncn4C(C)C)n3)o2)c1 [Compound I-037] | 50 to 500
CC(C)n1cnnc1-c1cccc(-c2ncc(-c3ccc(C4CC4)cc3)o2)n1 [Compound I-039] | 50 to 500
CC(C)n1cnnc1-c1cccc(-c2ncc(-c3cccc(C4CC4)c3)o2)n1 [Compound I-040] | ≤ 50
Cc1ccc(-c2cnc(-c3cccc(-c4nncn4C(C)C)n3)o2)c(F)c1 [Compound I-041] | ≤ 50
Cc1cccc(F)c1-c1cnc(-c2cccc(-c3nncn3C(C)C)n2)o1 [Compound I-044] | 50 to 500
CC(C)n1cnnc1-c1cccc(-c2ncc(-c3ccc(C(C)(C)C)cc3F)o2)n1 [Compound I-045] | 50 to 500
CC(C)n1cnnc1-c1cccc(-c2ncc(-c3ccc(F)cc3F)o2)n1 [Compound I-049] | 50 to 500
CC(C)n1cnnc1-c1cccc(-c2ncc(-c3c(F)cccc3F)o2)n1 [Compound I-050] | ≤ 50

The remaining lines, values ahead:

EC50 [nM] | Structure (SMILES)
≤ 50 | Cc1ccc(-c2cnc(-c3cccc(-c4nncn4C(C)CO)n3)o2)c(F)c1 (centres unmarked) [Compound I-001, 2-(3-(6-(5-(2-Fluoro-4-methylphenyl)oxazol-2-yl)pyridin-2-yl)-4H-1,2,4-triazol-4-yl) propan-1-ol]
≤ 50 | CC(C)n1cnnc1-c1cccc(-c2ncc(-c3ccccc3)o2)n1 [Compound I-002, 2-(5-Phenyl-1,3-oxazol-2-yl)-6-[4-(propan-2-yl)-4H-1,2,4-triazol-3-yl] pyridine]
≤ 50 | CC(CO)n1cnnc1-c1cccc(-c2ncc(-c3ccccc3)o2)n1 (centres unmarked) [Compound I-004, 2-(3-(6-(5-Phenyloxazol-2-yl)pyridin-2-yl)-4H-1,2,4-triazol-4-yl) propan-1-ol]
500 to 5000 | Cc1ccccc1-c1cnc(-c2cccc(-c3nncn3[C@H](C)CN)n2)o1 [Compound I-013, (R)-2-(3-(6-(5-o-Tolyloxazol-2-yl)pyridin-2-yl)-4H-1,2,4-triazol-4-yl)propan-1-amine]
≤ 50 | C[C@H](CO)n1cnnc1-c1cccc(-c2ncc(-c3ccccc3)o2)n1 [Compound I-018]
50 to 500 | C[C@@H](CO)n1cnnc1-c1cccc(-c2ncc(-c3ccccc3)o2)n1 [Compound I-019]
≤ 50 | Cc1ccccc1-c1cnc(-c2cccc(-c3nncn3C(C)C)n2)o1 [Compound I-024]
≤ 50 | Cc1ccccc1-c1cnc(-c2cccc(-c3nncn3[C@H](C)CO)n2)o1 [Compound I-025]
50 to 500 | CCC(C)n1cnnc1-c1cccc(-c2ncc(-c3ccccc3C)o2)n1 (centres unmarked) [Compound I-026]
≤ 50 | Cc1ccccc1-c1cnc(-c2cccc(-c3nncn3C(C)C(F)(F)F)n2)o1 (centres unmarked) [Compound I-027]
≤ 50 | Cc1ccc(-c2cnc(-c3cccc(-c4nncn4[C@H](C)CO)n3)o2)cc1 [Compound I-030]
≤ 50 | Cc1ccc(-c2cnc(-c3cccc(-c4nncn4C(C)C)n3)o2)c(C)c1 [Compound I-031]
≤ 50 | Cc1ccc(-c2cnc(-c3cccc(-c4nncn4[C@H](C)CO)n3)o2)c(C)c1 [Compound I-032]
50 to 500 | Cc1cc(C)c(-c2cnc(-c3cccc(-c4nncn4[C@H](C)CO)n3)o2)c(C)c1 [Compound I-033]
≤ 50 | CCc1ccccc1-c1cnc(-c2cccc(-c3nncn3C(C)C)n2)o1 [Compound I-038]
≤ 50 | Cc1ccc(-c2cnc(-c3cccc(-c4nncn4[C@H](C)CO)n3)o2)c(F)c1 [Compound I-042]
50 to 500 | Cc1ccc(-c2cnc(-c3cccc(-c4nncn4[C@@H](C)CO)n3)o2)c(F)c1 [Compound I-043]
≤ 50 | C[C@H](CO)n1cnnc1-c1cccc(-c2ncc(-c3c(F)cccc3F)o2)n1 [Compound I-051]
≤ 50 | Cc1cc(F)c(-c2cnc(-c3cccc(-c4nncn4[C@H](C)CO)n3)o2)c(F)c1 [Compound I-052]
